Measured values as given in patent publication US10578610B2, “Peptide regulators of mitochondrial fusion and methods of use” (priority 2016, dated 2020).
Ends that are not written are not given here.

Key:
Opa1 and Drp1 = assay: Immunoblot analysis of mitochondrial dynamics proteins in MEFs; type: cell-based, murine; settings: immunoblot 4 hours after application to MEFs; data not shown
Mfn2 KO MEFs = assay: TAT-minipeptides in a cell model of Mfn2 deficiency; type: cell-based, murine; settings: 1 μM or 5 μM, 24 hours, data not shown
Text: Enhancing Mfn1- or Mfn2-mediated mitochondrial fusion with TAT-367-384 Gly has potential to alleviate mitochondrial morphological abnormalities like those evoked in CMT2A caused by nonsense or damaging non-synonymous Mfn2 mutations (Bombelli et al., 2014, JAMA Neurol, 71:1036-1042). It was reasoned that mitochondrial morphology would improve if endogenous normal Mfn1 or Mfn2 were assisted into their active conformations in which the D2 region is extended and/or available for interaction with the D2 region of a second Mfn protein (e.g., FIGS. 1B and 3B). This notion was tested in Mfn2 KO MEFs, a cell model of Mfn2 deficiency. WT MEFs and Mfn2 KO MEFs were treated with 1 μM or 5 μM TAT-367-384Gly peptide or TAT-398-418Gly peptide.

human Mfn2 [1] = molecular target: T1, human Mfn2 (Homo sapiens, UniProt O95140); assay: Mfn2 GTPase assay; type: biochemical; set-up: purchased OriGene; settings: 1 M peptide 15 minutes, then 0.5 mM GTP 1 hour 37° C.; data not shown
T1 sequence (O95140 1-757): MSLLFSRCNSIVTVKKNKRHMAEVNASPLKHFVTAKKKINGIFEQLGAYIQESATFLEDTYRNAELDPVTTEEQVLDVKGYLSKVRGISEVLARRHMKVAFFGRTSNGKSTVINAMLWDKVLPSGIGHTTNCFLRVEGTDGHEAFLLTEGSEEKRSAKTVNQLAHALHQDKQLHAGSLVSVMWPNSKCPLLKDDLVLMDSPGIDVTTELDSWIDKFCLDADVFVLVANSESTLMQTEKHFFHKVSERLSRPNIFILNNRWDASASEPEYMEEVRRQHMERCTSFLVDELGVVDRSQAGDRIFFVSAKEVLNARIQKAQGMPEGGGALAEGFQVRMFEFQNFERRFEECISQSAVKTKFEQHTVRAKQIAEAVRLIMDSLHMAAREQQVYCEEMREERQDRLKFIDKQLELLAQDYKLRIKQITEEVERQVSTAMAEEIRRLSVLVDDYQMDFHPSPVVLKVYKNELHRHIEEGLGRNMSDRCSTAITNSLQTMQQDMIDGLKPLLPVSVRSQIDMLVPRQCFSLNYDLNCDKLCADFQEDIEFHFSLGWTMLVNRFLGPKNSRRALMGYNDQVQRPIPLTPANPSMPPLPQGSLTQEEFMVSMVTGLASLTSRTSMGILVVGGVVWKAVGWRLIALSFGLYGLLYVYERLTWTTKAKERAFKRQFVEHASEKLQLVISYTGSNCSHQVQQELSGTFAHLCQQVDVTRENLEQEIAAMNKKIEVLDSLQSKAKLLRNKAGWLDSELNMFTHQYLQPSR
Experimental: Minipeptide effects on Mfn2 GTPase activity were evaluated using a modification of a previously described method (Qi X et al., 2013, J Cell Sci 126:789-802). Briefly, recombinant Mfn2 (100 ng, OriGene, Rockville, Md.) was incubated with […] control TAT peptide, TAT-367-384Gly, or TAT-398-418Gly for 15 minutes prior to addition of 0.5 mM GTP for 1 hour at 37° C. GTPase activity relative to no-peptide control was measured using a colorimetric GTPase assay kit (Novus Biologicals, Littleton, Colo.) following the manufacturer's instructions.

human Mfn2 [2] = molecular target: T1, human Mfn2; assay: Carboxypeptidase protection assay on mitochondrial membranes; type: biochemical; set-up: from tissue; host or cells: mitochondrial membranes of transgenic mouse hearts overexpressing human Mfn2; settings: 200 ng/ml carboxypeptidases A and B; mouse heart mitochondrial membranes overexpressing human Mfn2
Experimental: Mitochondrial membranes were prepared (Song et al., 2015, Cell Metab, 21:273-285) from mouse hearts overexpressing human Mfn2 (Gong et al., 2015, Science, 350:aad2459) and digested with 200 ng/ml each carboxypeptidases A and B (Sigma-Aldrich) for increasing times at room temperature, followed by immunoblotting using an antibody (Abcam ab56889) specific to hMfn2 HR2.

hMfn2 = molecular target: T2, hMfn2 (Homo sapiens, UniProt O95140); assay: Mfn2 FRET assay in live cells; type: cell-based; settings: 5 μM TAT-minipeptide, data not shown
T2 construct: expressed in transfected cells; host or cells: FMK 293T cells (so in the source), Lipofectamine-transfected, pcDNA3.1
T2 sequence (O95140 1-757): T1 sequence (O95140 1-757)
Experimental: mCerulean1 and mVenus were cloned onto the 5′ and 3′ ends of hMfn2 cDNA in pcDNA3.1 and confirmed by DNA sequencing. Lipofectamine-transfected biosensor-expressing FMK 293T cells were imaged on an Olympus IX81 ZDC inverted microscope under 40× magnification. mCerulean was excited at 436 nm with emission at 480 nm. mVenus was excited at 500 nm with emission at 535 nm. FRET was imaged with excitation at 436 nm and emission at 535 nm. Studies were performed after adding GTP[…]S (1 mM, Sigma-Aldrich) to suppress Mfn2 GTPase activity. Live cell FRET data were acquired as described (Spiering et al., 2013, Methods Cell Biol, 114:593-609) every 60 seconds for 15 minutes before and 90 minutes after addition of TAT-minipeptides (5 µM).

QDRLKFIDKQGELLAQDYKLRGGYGRKKRRQRRR [TAT-398-418Gly]
abundance of Opa1 and Drp1 (Opa1 and Drp1): without altering Mfn2 GTPase activity or influencing the abundance
mitochondrial aspect ratio (Mfn2 KO MEFs): exaggerated mitochondrial shortening
Mfn2 GTPase activity (human Mfn2 [1]): without altering Mfn2 GTPase activity
carboxyl terminal-directed proteolytic digestion of Mfn2 (exposure of C-terminal HR2 domain) (human Mfn2 [2]): had the opposite effect
FRET of hMfn2 tagged with mCerulean1 and mVenus (hMfn2): increased

QIAEAVRGIMDSLHMAARGGYGRKKRRQRRR [TAT-367-384Gly]
abundance of Opa1 and Drp1 (Opa1 and Drp1): without altering Mfn2 GTPase activity or influencing the abundance
mitochondrial aspect ratio (Mfn2 KO MEFs): normalized mitochondrial aspect ratio
Mfn2 GTPase activity (human Mfn2 [1]): without altering Mfn2 GTPase activity
carboxyl terminal-directed proteolytic digestion of Mfn2 (exposure of C-terminal HR2 domain) (human Mfn2 [2]): accelerated carboxyl terminal-directed proteolytic digestion of Mfn2
FRET of hMfn2 tagged with mCerulean1 and mVenus (hMfn2): had the opposite effect
